Converted amounts (≈) assume the structure as drawn.
Tests used:
[1] = Determination of LC Log P (experimental); format: physicochemical; settings: for chromatographic logP: from LC retention time against log P standards, read-out: LC LogP (exp)
Description: Liquid chromatography retention times (RT) are measured for each substance using the conditions described below. A linear equation is derived relating RT to log P is developed from the data for the log P standards. The log P for the test compound is calculated from the log P/retention time equation.

[2] = tested on: mutated ecdysone receptor-based gene switch; experiment: In vivo SEAP induction, ligand by IP injection; set-up: species or system C57BL/6 mouse; settings: for Secreted Alkaline Phosphatase (percentage of GS ™-E ligand induction) Day 2 / Secreted Alkaline Phosphatase (percentage of GS ™-E ligand induction) Day 3 / Secreted Alkaline Phosphatase (percentage of GS ™-E ligand induction) Day 11: mouse serum; for Secreted Alkaline Phosphatase (percentage of GS ™-E ligand induction) Day 2: IP 2.6 μmol ligand 3 days after electroporation, day 2 after ligand; for Secreted Alkaline Phosphatase (percentage of GS ™-E ligand induction) Day 3 / Secreted Alkaline Phosphatase (percentage of GS ™-E ligand induction) Day 11: IP 2.6 μmol ligand; for Secreted Alkaline Phosphatase (percentage of GS ™-E ligand induction) Day 3: day 3 after ligand; for Secreted Alkaline Phosphatase (percentage of GS ™-E ligand induction) Day 11: day 11 after ligand
Summary of the method: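 Gene switch plasmids (receptor under CMV promoter) electroporated into quadriceps of C57BL/6 mice; 3 days later ligand given IP at 2.6 μmol or 26 nmol in 50 μL DMSO per mouse. Serum SEAP measured by chemiluminescence 2-11 days after dosing, averaged over four animals, expressed as % of GS™-E ligand induction.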

[3] = Determination of water solubility (de-ionized water, LC/MS); settings: kinetic from dmso stock
Description: Aqueous solutions are prepared as follows in triplicate: 50 μl of a 10,000 ppm solution (2,000 μg of solid dissolved in 200 μl of methanol) of the substrate in methanol or DMSO is added to 1 mL of de-ionized water in a 2 dram or smaller vial with magnetic stirring. Stirring is continued overnight at ambient temperature. The slurry is taken up into a syringe with a luer tip. The contents are passed through a new 13 mm 0.2 ρM Acrodisc filter (tuffryn or glass fiber) into an autosampler bottle. For preparation of calibration standard solutions: dilutions of the 10,000 ppm solution were prepared at 10, 5, 1, 0.5, and 0.2 ppm. […] For more soluble materials, dilution of the samples into this range is preferable to increasing the calibration range because the non-linearity of the response results in less useful calibration curves. However a shift in the range of calibration standards is required for very insoluble compounds.
Chromatography of the samples was then preformed. For most diacylhydrazines the following conditions were adequate for the measurement. Other columns and gradients may be substituted as appropriate.
Analysis of the test samples is conducted as follows: Each solubility replicate is analyzed in duplicate. […] Standard curves are obtained from duplicate injections of the standards. The concentration of the substrate is determined by calculation from the equation relating concentration and response.

[4] = target: GAL4 DBD (1-147)-CfEcR(DEF)/VP16AD-βRXREF-LmUSPEF (Choristoneura fumiferana, UniProt O77240); experiment: cell-based; settings: for 27-63 assay Rel Max FI: maximum fold induction at any concentration relative to that of GS-E ligand, CHO 27-63 cells; for fold induction at 3.3 µM: read-out: Fold Induction, 27-63 Assay, 3.3 uM; for fold induction at 33 µM: read-out: Fold Induction, 27-63 Assay, 33 uM

| SMILES | chromatographic logP [1] | Secreted Alkaline Phosphatase (percentage of GS ™-E ligand induction) Day 2 [2] | Secreted Alkaline Phosphatase (percentage of GS ™-E ligand induction) Day 3 [2] | solubility kinetic [3] [µM] | Secreted Alkaline Phosphatase (percentage of GS ™-E ligand induction) Day 11 [2] | logP ([1]; diacylhydrazine log P standards (log P known experimentally)) | 27-63 assay Rel Max FI [4] | Secreted Alkaline Phosphatase Day 2 ([2]; IP 130 nmol ligand, day 2) [ng/ml mouse sera] | Secreted Alkaline Phosphatase Day 3 ([2]; IP 130 nmol ligand, day 3) | Secreted Alkaline Phosphatase Day 7 ([2]; IP 130 nmol ligand, day 7) [ng/ml mouse sera] | EC50 [4] [nM] | fold induction at 3.3 µM [4] | fold induction at 33 µM [4] |
| --- | --- | --- | --- | --- | --- | --- | --- | --- | --- | --- | --- | --- | --- |
| COc1cc(C(=O)N(NC(=O)c2ccc3c(c2C)OCCO3)C(C)(C)C)cc(OC)c1O [RG-115009, 4-Hydroxy-3,5-dimethoxy-benzoic acid N-tert-butyl-N′-(5-methyl-2,3-dihydro-benzo[1,4]dioxine-6-carbonyl)-hydrazide] | 1.9 | 4 percentage of GS ™-E ligand induction | 3 percentage of GS ™-E ligand induction | 30.4 (≈ 13.5 µg/mL) | – | – | – | – | – | – | – | – | – |
| COc1ccc(C(=O)N(NC(=O)c2ccc3c(c2C)OCCO3)C(C)(C)C)c(OC)n1 [RG-115517, 2,6-dimethoxy-nicotinic acid N-tert-butyl-N′-(5-methyl-2,3-dihydro-benzo[1,4]dioxine-6-carbonyl)-hydrazide] | 3.15 | 4 percentage of GS ™-E ligand induction | 3 percentage of GS ™-E ligand induction | 36.7 (≈ 15.8 µg/mL) | – | – | – | – | – | – | – | – | – |
| Cc1c(C(=O)NN(C(=O)c2cc(F)c(F)c(F)c2)C(C)(C)C)ccc2c1CCCO2 [RG-115575, 3,4,5-Trifluoro-benzoic acid N-tert-butyl-N′-(5-methyl-chroman-6-carbonyl)-hydrazide] | 4.1 | 74 percentage of GS ™-E ligand induction | 78 percentage of GS ™-E ligand induction | 21.6 (≈ 9.08 µg/mL) | 69 percentage of GS ™-E ligand induction | – | – | – | – | – | – | – | – |
| CCc1c(OC)cccc1C(=O)NN(C(=O)c1cc(C)cc(C)c1)C(C)(C)C [RG-102240, N-(3-methoxy-2-ethylbenzoyl)-N′-(3,5-dimethylbenzoyl)-N′-tert-butylhydrazine] | 4.2 | 100 percentage of GS ™-E ligand induction | 100 percentage of GS ™-E ligand induction | 9.8 (≈ 3.75 µg/mL) | 100 percentage of GS ™-E ligand induction | 4.2 | 1 | 652 | 1,780 ng/ml mouse sera | 139 | – | – | – |
| COc1cc(C(=O)N(NC(=O)c2ccc3c(c2C)OCCO3)C(C)(C)C)cc(OC)c1C [RG-115637, 5-Methyl-2,3-dihydro-benzo[1,4]dioxine-6-carboxylic acid N′-tert-butyl-N′-(3,5-dimethoxy-4-methyl-benzoyl)-hydrazide] | 3.54 | 12 percentage of GS ™-E ligand induction | 7 percentage of GS ™-E ligand induction | 13.7 (≈ 6.06 µg/mL) | 0 percentage of GS ™-E ligand induction | – | 1.305 | – | – | – | 117 | 4160 | 2740 |
| CCc1ccc(C(=O)NN(C(=O)c2cc(C)cc(C)c2)C(C)(C)C)c(F)c1 [RG-101523, 3,5-Dimethyl-benzoic acid N-tert-butyl-N′-(4-ethyl-2-fluoro-benzoyl)-hydrazide] | 4.35 | 85 percentage of GS ™-E ligand induction | 79 percentage of GS ™-E ligand induction | 13.4 (≈ 4.96 µg/mL) | 1,116 percentage of GS ™-E ligand induction | – | 0.943 | – | – | – | 165 | 2430 | 2740 |
